Where two headings read alike, the source gives them in different places.
Legend:
[1] = system: human neutrophil adhesion to TNFα, IL-1α, and LPS-stimulated human umbilical vein endothelial cells; test: Inhibition of human neutrophil adhesion to stimulated HUVEC (51Cr-labeled neutrophils); assay type: cell-based
Source text: METHOD FOR DETERMINING THE INHIBITION OF HUMAN NEUTROPHIL ADHESION TO TNFα, IL-1α, AND LPS-STIMULATED HUMAN UMBILICAL VEIN ENDOTHELIAL CELLS BY 3-ALKYLOXY-, ARYLOXY-, OR ARYLALKYLOXY BENZO[b]THIOPHENE-2-CARBOXAMIDES
Neutrophils were isolated from anticoagulant-treated venous blood obtained from healthy human volunteers according to the method of Ferrante and Thong (J. Immunol. Methods 1978;24:389-93).
Second passage human umbilical vein endothelial cells (HUVEC) (Clonetics, San Diego, Calif.) were seeded into Falcon 24-well cell culture plates (Becton Dickinson, Lincoln Park, N.J.) at approximately 2×10^4 cells per well. The cells were grown to confluent monolayers in endothelial basal medium (EBM, Clonetics) supplemented with 5% fetal calf serum (Hyclone Laboratories, Logan, Utah), 10 ng/mL EGF, 1 μg/mL hydrocortisone, 0.4% bovine brain extract (Clonetics) in 5% CO2 at 37° C.
Neutrophils (30×10^6) were labeled for 60 minutes at 37° C. with 100 μCi Na^51 CrO4 (ICN Biomedicals, Costa Mesa, Calif.) in 2.0 mL Ca^2+ - and Mg^2+ -free Hanks' balanced salt solution (HBSS, GIBCO Laboratories, Grand Island, N.Y.). The cells were washed two times in HBSS and suspended in unsupplemented EBM.
Stimulation of HUVEC with tumor necrosis factor-α (TNFα) (Genzyme, Cambridge, Mass.) , interleukin (IL-1α) (Genzyrne) or E. coli 0111:B4 lipopolysaccharide (LPS) (Sigma) in the presence or absence of drug was initiated 4 hours prior to the addition of neutrophils. The suspension medium was unsupplemented EBM or supplemented EBM for studies with cytokines or LPS, respectively. […] Immediately prior to addition of ^51 Cr-labeled neutrophils to the HUVEC monolayers, the cultures were washed with 1 mL unsupplemented media to remove stimulus and/or drug. Neutrophils (5×10^5) were then added to the HUVEC in 0.5 mL unsupplemented media and incubated at 37° C. for 30 minutes. Nonadherent neutrophils were removed by aspiration. Following an additional wash, adherent neutrophils were lysed with 0.5 mL 1N NH4 OH overnight at 37° C. Lysates were collected and the radioactivity in each well was determined by gamma ray spectroscopy.

[2] = system: mycobacterium footpad edema; test: Inhibition of mycobacterium footpad edema (MFE); assay type: in vivo, rat; settings: rats
Procedure: METHOD FOR DETERMINING THE INHIBITION OF MYCOBACTERIUM FOOTPAD EDEMA BY […]HOXY-3-([…]HYLETHOXY) BENZO[b]THIOPHENE-2-CARBOXAMIDE-1-OXIDE Mycobacterium butyricum (5 mg/mL) was prepared by sonication in paraffin oil for 10 minutes in an ice bath. Footpad edema was induced on Day 0 by injecting 0.1 mL of the Mycobacterium mixture into the left hindpaw of lightly anesthetized rats. Swelling in the injected hindpaw was determined by mercury plethysmography on Days 1, 2, and 3. Groups of rats were treated with test compounds (suspended in 0.5% hydroxypropyl methylcellulose with 0.2% Tween 80 or vehicle 1 hour before Mycobacterium injection and on Days 1 and 2. Inhibition of swelling is determined by comparing the change in hindpaw volume in compound- and vehicle-treated rats.

5-Lipoxygenase [3] = target: T1, 5-Lipoxygenase (Rattus norvegicus, UniProt P12527); test: ARBL: 5-lipoxygenase (LTB4) in RBL-1 cells; assay type: cell-based; parameters: endogenous in cells; host or cells: RBL-1 (rat basophilic leukemia); settings: Table 4; for IC50: ARBL/ARBC IC50 (μM) or % inhibition at 10 μM, RBL-1 cells, A23187; for inhibition at 10 µM: RBL-1, class symbol
T1 sequence (P12527 1-673): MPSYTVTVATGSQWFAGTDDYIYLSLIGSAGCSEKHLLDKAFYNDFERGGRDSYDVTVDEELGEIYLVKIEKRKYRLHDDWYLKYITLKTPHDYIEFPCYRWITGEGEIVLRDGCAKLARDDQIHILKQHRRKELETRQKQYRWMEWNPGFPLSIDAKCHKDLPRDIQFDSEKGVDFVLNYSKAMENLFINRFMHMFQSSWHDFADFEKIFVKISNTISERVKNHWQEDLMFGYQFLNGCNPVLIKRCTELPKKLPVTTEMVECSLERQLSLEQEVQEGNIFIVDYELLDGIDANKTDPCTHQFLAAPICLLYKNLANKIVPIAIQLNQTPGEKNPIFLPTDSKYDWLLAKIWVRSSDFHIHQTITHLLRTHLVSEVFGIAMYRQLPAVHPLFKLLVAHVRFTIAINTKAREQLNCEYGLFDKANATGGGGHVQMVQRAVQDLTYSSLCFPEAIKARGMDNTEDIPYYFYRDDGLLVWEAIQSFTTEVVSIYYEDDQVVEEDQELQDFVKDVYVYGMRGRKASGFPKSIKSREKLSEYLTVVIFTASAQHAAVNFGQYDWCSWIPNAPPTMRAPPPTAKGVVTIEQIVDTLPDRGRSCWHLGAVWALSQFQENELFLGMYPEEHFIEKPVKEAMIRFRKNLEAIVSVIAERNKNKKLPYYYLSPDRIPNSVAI
Procedure: (§1) The testing methods used are described as follows:
(§2) The rat basophilic leukemia cell line (RBL-1) was obtained from the American Type Culture Collection (Rockville, Md.).
(§3) Radioimmunoassay (RIA) kits of LTB4 and PGF2α were obtained from Arnersham (Arlington Heights, IL) and Seragen (Boston, Mass.), respectively.
(§4) All tissue culture media were obtained from GIBCO (Grand Island, N.Y.).
(§5) RBL-1 cells are grown in suspension culture in Eagle's minimum essential medium supplemented with 12% fetal bovine serum at 37° C. in an incubator supplied with air-5% carbon dioxide. Cells are harvested by centrifugation. They are washed with cold phosphate-buffered saline, pH 7.4 (PBS; NaCl, 7.1 g; Na2 HPO4, 1.15 g; KH2 PO4, 0.2 g; and KCl, 0.2 g/L). Cells are finally suspended in PBS containing 1.0 mM calcium at a density of 2×10^6 cells/mL. Cells are incubated with and without test agent (in DMSO) (1% DMSO is without effect on arachidonic acid metabolism) for 10 minutes at room temperature. Calcium ionophore A23187 (5 μM) is added and cells are incubated for 7 minutes at 37° C. The reaction is stopped by chilling the tubes on ice for 10 minutes. Cells are separated by centrifugation and the supernatant is stored at -20° C. Aliquots (100 μL) are analyzed for LTB4 and PGF2α using radioimmunoassay kits as provided by the supplier.

5-Lipoxygenase [4] = target: T1, 5-Lipoxygenase; test: 5-lipoxygenase inhibition assay (20,000 xg supernatant of RBL cells); assay type: biochemical; parameters: activity contained in the 20,000 xg supernatant from cultured rat basophilic leukemia (RBL) cells; endogenous in cells; host or cells: RBL (rat basophilic leukemia) cells, 20,000 xg supernatant
Procedure: PROTOCOL FOR 5-LIPOXYGENASE INHIBITION ASSAY
Incubations contained 5% (v/v) RBL 20,000 xg supernatant in assay buffer (10 mM BES, 10 mM PIPES, 1 mM EDTA, 0.75 mM CaC12, 1 mMATP, 100 mMNaCl, pH 6.8). DMSO vehicle (2% v/v) with and without inhibitors is preincubated with the enzyme for 20 minutes at 37° C. before initiating the 5-lipoxygenase catalyzed reaction by adding […] [^14 C]arachidonic acid (55.8 mCi/mmol, New England Nuclear, Boston, Mass.) dissolved in 5 μL 0,028% (v/v) aqueous NH4 OH. After 20 minutes of additional incubation at 37° C., reactions are terminated by the addition of three volumes of methanol containing 100 μg triphenylphosphine. Samples are then analyzed by HPLC with radiometric detection for 5-1ipoxygenase reaction products.
All treatments are evaluated in duplicate and percent inhibition is computed by comparing the products formed in treatment incubations to the mean product formation in the vehicle control group.

Cyclooxygenase = test: ARBC: cyclooxygenase (PGF2α) in RBL-1 cells; assay type: cell-based, rat; settings: Table 4, class symbol
Procedure: as §1, §2, §3, §4, §5

[5] = Table 4, read-out: 5-LO % Inhibition at 30 μM
[6] = Table 4, class symbol, read-out: 5-LO % Inhibition at 30 μM

SMILES	IC50 (5-Lipoxygenase [3]) [µM]	inhibition at 30 µM (5-Lipoxygenase [4]; [5]) [%]	inhibition at 10 µM (5-Lipoxygenase [3]) [%]	inhibition at 30 µM (5-Lipoxygenase [4]; [6]) [%]	inhibition at 100 µM ([1]; Table 1, at 100 μM) [%]	ARBC % Inhibition at 10 μM (Cyclooxygenase)	further results
COc1ccc2c(c1)c(OC(C)C)c(C(N)=O)[s+]2[O-] (stereo not shown) [Example 28, 5-Methoxy-3-(1-methylethoxy)benzo[b]thiophene-2-carboxamide-1-oxide]	–	–	–	–	–	–	inhibition at 100 µM ([1]; Table 3, at 100 μM): 83%; ED40 ([2]; Mycobacterium, dosed 1 hour before injection and on Days 1 and 2, read-out: ID40 in mycobacterium footpad edema (MFE)): 10.9 mg/kg; activity in mycobacterium footpad edema (in words) [2]: active
COc1ccc2sc(C(=O)Nc3ccc(C(=O)O)cc3)c(OC(C)C)c2c1 [Example 12, 4-[[[5-Methoxy-3-(1-methylethoxy)benzo[b]thien-2-yl]carbonyl]amino]benzoic acid]	36	16	–	–	–	–	IC50 ([1]; Table 2, footnote b): 50 µM

The next lines start with results.

IC50 (5-Lipoxygenase [3]) [µM]	inhibition at 30 µM (5-Lipoxygenase [4]; [5]) [%]	inhibition at 10 µM (5-Lipoxygenase [3]) [%]	inhibition at 30 µM (5-Lipoxygenase [4]; [6]) [%]	SMILES	inhibition at 100 µM ([1]; Table 1, at 100 μM) [%]	ARBC % Inhibition at 10 μM (Cyclooxygenase)	further results
36	13	–	–	COc1ccc2sc(C(N)=O)c(OC(C)C)c2c1 [Example 1, 5-methoxy-3-(1-methylethoxy)benzo[b]thiophene-2-carboxamide]	–	–	–
–	–	< 40	< 4	COc1ccc2sc(C(N)=O)c(Oc3ccccc3)c2c1 [Example 9, 5-Methoxy-3-(phenoxy)benzo[b]thiophene-2-carboxamide]	59	N (Less than 40% inhibition at 10 μM)	–
–	–	< 40	< 4	CC(C)Oc1c(C(N)=O)sc2ccccc12 [Example 2, 3-(1-methylethoxy)benzo[b]thiophene-2-carboxamide]	60	N (Less than 40% inhibition at 10 μM)	–
